# ChEMBL document CHEMBL1201862, “PubChem BioAssay data set” (2004)
#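 Cells were grown in 96-well plates and exposed to each compound for 48 hours at five concentrations; endpoints were interpolated linearly between bracketing concentrations, or set to the highest concentration if not reached. Abbreviation: GI50, concentration required for 50% inhibition of growth.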 The source made the active and inactive calls. No stated cut-off is given here; in the data, active = GI50 up to about 1.1 µM and inactive = higher.
# How the values were obtained:
# Experiment in all cases: NCI tumour cell line growth inhibition, 48 h
# SK-MEL-2 = system: SK-MEL-2
# MOLT-4 = system: MOLT-4
# NCI-H460 = system: NCI-H460
# NCI-H522 = system: NCI-H522
# NCI/ADR-RES = system: NCI/ADR-RES
# OVCAR-8 = system: OVCAR-8
# OVCAR-3 = system: OVCAR-3
# SK-MEL-5 = system: SK-MEL-5
# Hs-578T = system: Hs-578T
# SNB-75 = system: SNB-75
# HOP-92 = system: HOP-92
# SW-620 = system: SW-620
# KM12 = system: KM12
# NCI-H226 = system: NCI-H226
# DU-145 = system: DU-145
# M14 = system: M14
# COLO 205 = system: COLO 205
# IGROV-1 = system: IGROV-1
# K562 = system: K562
# Malme-3M = system: Malme-3M
# A498 = system: A498
# LOX IMVI = system: LOX IMVI
# 786-0 = system: 786-0
# SF-295 = system: SF-295
# HL-60 = system: HL-60
# MCF7 = system: MCF7
# NCI-H23 = system: NCI-H23
# CCRF-CEM = system: CCRF-CEM
# T47D = system: T47D
# HCT-116 = system: HCT-116
# SK-MEL-28 = system: SK-MEL-28
# MDA-N = system: MDA-N
# HCT-15 = system: HCT-15
# SR = system: SR
# OVCAR-4 = system: OVCAR-4
# HCC 2998 = system: HCC 2998
# HT-29 = system: HT-29
# U-251 = system: U-251
# SNB-19 = system: SNB-19
# UO-31 = system: UO-31
# ACHN = system: ACHN
# SK-OV-3 = system: SK-OV-3
# PC-3 = system: PC-3
# RXF 393 = system: RXF 393
# SN12C = system: SN12C
# EKVX = system: EKVX
# HOP-62 = system: HOP-62
# OVCAR-5 = system: OVCAR-5
# CAKI-1 = system: CAKI-1
# SF-539 = system: SF-539
# BT-549 = system: BT-549
# A549 = system: A549
# RPMI-8226 = system: RPMI-8226
# TK-10 = system: TK-10
# SF-268 = system: SF-268
# UACC-257 = system: UACC-257
# MDA-MB-231 = system: MDA-MB-231
# MDA-MB-435 = system: MDA-MB-435
# UACC-62 = system: UACC-62
compound,measurement,setting,value
CSC1=NS(=O)(=O)c2cc(C(=O)NN(C)C(=O)c3cc4c(cc3Cl)SC(SC)=NS4(=O)=O)c(Cl)cc2S1,GI50,SK-MEL-2,> 10 µM (inactive)
same,GI50,MOLT-4,> 10 µM (inactive)
same,GI50,NCI-H460,> 10 µM (inactive)
same,GI50,NCI-H522,> 10 µM (inactive)
same,GI50,NCI/ADR-RES,> 10 µM (inactive)
same,GI50,OVCAR-8,> 10 µM (inactive)
same,GI50,OVCAR-3,> 10 µM (inactive)
same,GI50,SK-MEL-5,> 10 µM (inactive)
same,GI50,Hs-578T,> 10 µM (inactive)
same,GI50,SNB-75,> 10 µM (inactive)
same,GI50,HOP-92,> 10 µM (inactive)
same,GI50,SW-620,> 10 µM (inactive)
same,GI50,KM12,> 10 µM (inactive)
same,GI50,NCI-H226,> 10 µM (inactive)
same,GI50,DU-145,> 10 µM (inactive)
same,GI50,M14,> 10 µM (inactive)
same,GI50,COLO 205,> 10 µM (inactive)
same,GI50,IGROV-1,> 10 µM (inactive)
same,GI50,K562,> 10 µM (inactive)
same,GI50,Malme-3M,> 10 µM (inactive)
same,GI50,A498,> 10 µM (inactive)
same,GI50,LOX IMVI,> 10 µM (inactive)
same,GI50,786-0,> 10 µM (inactive)
same,GI50,SF-295,> 10 µM (inactive)
same,GI50,HL-60,> 10 µM (inactive)
same,GI50,MCF7,9.75 µM (inactive)
same,GI50,NCI-H23,> 10 µM (inactive)
same,GI50,CCRF-CEM,> 10 µM (inactive)
same,GI50,T47D,> 10 µM (inactive)
same,GI50,HCT-116,> 10 µM (inactive)
same,GI50,SK-MEL-28,> 10 µM (inactive)
same,GI50,MDA-N,> 10 µM (inactive)
same,GI50,HCT-15,> 10 µM
same,GI50,SR,> 10 µM (inactive)
same,GI50,OVCAR-4,> 10 µM (inactive)
same,GI50,HCC 2998,> 10 µM (inactive)
same,GI50,HT-29,> 10 µM (inactive)
same,GI50,U-251,> 10 µM (inactive)
same,GI50,SNB-19,> 10 µM (inactive)
same,GI50,UO-31,> 10 µM (inactive)
same,GI50,ACHN,> 10 µM (inactive)
same,GI50,SK-OV-3,> 10 µM (inactive)
same,GI50,PC-3,> 10 µM (inactive)
same,GI50,RXF 393,> 10 µM (inactive)
same,GI50,SN12C,> 10 µM (inactive)
same,GI50,EKVX,> 10 µM (inactive)
same,GI50,HOP-62,> 10 µM (inactive)
same,GI50,OVCAR-5,> 10 µM (inactive)
same,GI50,CAKI-1,> 10 µM (inactive)
same,GI50,SF-539,> 10 µM (inactive)
same,GI50,BT-549,> 10 µM (inactive)
same,GI50,A549,> 10 µM (inactive)
same,GI50,RPMI-8226,> 10 µM (inactive)
same,GI50,TK-10,> 10 µM (inactive)
same,GI50,SF-268,> 10 µM (inactive)
same,GI50,UACC-257,> 10 µM (inactive)
COc1ccc(-c2cc(-c3ccc(Nc4ccnc5cc(C(F)(F)F)ccc45)cc3)nc(N)c2C#N)c2ccccc12,GI50,SK-MEL-2,> 100 µM (inactive)
same,GI50,MOLT-4,53.3 µM (inactive)
same,GI50,NCI-H460,> 100 µM (inactive)
same,GI50,NCI/ADR-RES,> 100 µM (inactive)
same,GI50,OVCAR-3,> 100 µM (inactive)
same,GI50,SK-MEL-5,> 100 µM (inactive)
same,GI50,Hs-578T,65.2 µM (inactive)
same,GI50,SNB-75,> 100 µM (inactive)
same,GI50,HOP-92,> 100 µM (inactive)
same,GI50,SW-620,> 100 µM (inactive)
same,GI50,KM12,68.5 µM (inactive)
same,GI50,DU-145,> 100 µM (inactive)
same,GI50,M14,> 100 µM (inactive)
same,GI50,COLO 205,> 100 µM (inactive)
same,GI50,Malme-3M,> 100 µM (inactive)
same,GI50,A498,> 100 µM (inactive)
same,GI50,LOX IMVI,29.4 µM (inactive)
same,GI50,786-0,> 100 µM (inactive)
same,GI50,SF-295,> 100 µM (inactive)
same,GI50,HL-60,70.3 µM (inactive)
same,GI50,MCF7,97.9 µM (inactive)
same,GI50,NCI-H23,> 100 µM (inactive)
same,GI50,T47D,> 100 µM (inactive)
same,GI50,HCT-116,97.9 µM (inactive)
same,GI50,HCT-15,> 100 µM
same,GI50,MDA-MB-231,> 100 µM (inactive)
same,GI50,SR,32.5 µM (inactive)
same,GI50,OVCAR-4,> 100 µM (inactive)
same,GI50,HCC 2998,> 100 µM (inactive)
same,GI50,MDA-MB-435,> 100 µM (inactive)
same,GI50,U-251,> 100 µM (inactive)
same,GI50,SNB-19,> 100 µM (inactive)
same,GI50,UO-31,> 100 µM (inactive)
same,GI50,ACHN,> 100 µM (inactive)
same,GI50,SK-OV-3,> 100 µM (inactive)
same,GI50,PC-3,> 100 µM (inactive)
same,GI50,RXF 393,> 100 µM (inactive)
same,GI50,EKVX,> 100 µM (inactive)
same,GI50,HOP-62,> 100 µM (inactive)
same,GI50,OVCAR-5,> 100 µM (inactive)
same,GI50,CAKI-1,> 100 µM (inactive)
same,GI50,SF-539,> 100 µM (inactive)
same,GI50,BT-549,36.6 µM (inactive)
same,GI50,A549,> 100 µM (inactive)
same,GI50,RPMI-8226,> 100 µM (inactive)
same,GI50,TK-10,> 100 µM (inactive)
same,GI50,SF-268,> 100 µM (inactive)
same,GI50,UACC-62,> 100 µM (inactive)
CN(C)CC1CCCCCC(Br)C1=O (configuration not stated),GI50,SK-MEL-2,20.7 µM (inactive)
same,GI50,MOLT-4,0.946 µM (active)
same,GI50,NCI-H460,17.7 µM (inactive)
same,GI50,NCI-H522,3.66 µM (inactive)
same,GI50,NCI/ADR-RES,13.9 µM (inactive)
same,GI50,OVCAR-8,13 µM (inactive)
same,GI50,OVCAR-3,7.38 µM (inactive)
same,GI50,SK-MEL-5,15.5 µM (inactive)
same,GI50,Hs-578T,17.1 µM (inactive)
same,GI50,SNB-75,37.2 µM (inactive)
same,GI50,HOP-92,5.66 µM (inactive)
same,GI50,SW-620,3.71 µM (inactive)
same,GI50,KM12,18.4 µM (inactive)
same,GI50,NCI-H226,20.7 µM (inactive)
same,GI50,DU-145,12.1 µM (inactive)
same,GI50,M14,15.6 µM (inactive)
same,GI50,COLO 205,11.5 µM (inactive)
same,GI50,IGROV-1,28.2 µM (inactive)
same,GI50,K562,2.02 µM (inactive)
same,GI50,Malme-3M,6.5 µM (inactive)
same,GI50,A498,54.8 µM (inactive)
same,GI50,LOX IMVI,12.7 µM (inactive)
same,GI50,786-0,2.25 µM (inactive)
same,GI50,SF-295,> 64.6 µM (inactive)
same,GI50,HL-60,6.12 µM (inactive)
same,GI50,MCF7,2.71 µM (inactive)
same,GI50,NCI-H23,13.4 µM (inactive)
same,GI50,CCRF-CEM,0.352 µM (active)
same,GI50,T47D,9.23 µM (inactive)
same,GI50,HCT-116,2.05 µM (inactive)
same,GI50,SK-MEL-28,15.9 µM (inactive)
same,GI50,HCT-15,9.23 µM
same,GI50,MDA-MB-231,16.1 µM (inactive)
same,GI50,SR,1.64 µM (inactive)
same,GI50,OVCAR-4,15 µM (inactive)
same,GI50,HCC 2998,4.57 µM (inactive)
same,GI50,MDA-MB-435,16 µM (inactive)
same,GI50,HT-29,7.76 µM (inactive)
same,GI50,U-251,19.6 µM (inactive)
same,GI50,SNB-19,> 83.2 µM (inactive)
same,GI50,UO-31,13.6 µM (inactive)
same,GI50,ACHN,6.79 µM (inactive)
same,GI50,SK-OV-3,> 100 µM (inactive)
same,GI50,PC-3,21.3 µM (inactive)
same,GI50,RXF 393,15.4 µM (inactive)
same,GI50,SN12C,16.8 µM (inactive)
same,GI50,EKVX,15.1 µM (inactive)
same,GI50,HOP-62,24.8 µM (inactive)
same,GI50,OVCAR-5,17.2 µM (inactive)
same,GI50,CAKI-1,6.59 µM (inactive)
same,GI50,SF-539,17.3 µM (inactive)
same,GI50,BT-549,11.7 µM (inactive)
same,GI50,A549,> 70.8 µM (inactive)
same,GI50,RPMI-8226,0.61 µM (active)
same,GI50,TK-10,4.06 µM (inactive)
same,GI50,SF-268,24.2 µM (inactive)
same,GI50,UACC-62,18.7 µM (inactive)
same,GI50,UACC-257,9.93 µM (inactive)
